Laboratory results: US11702404B2, “GLP-1R modulating compounds” (priority 2019, dated 2023)
Read-outs that look alike come from different tables or passages of the source.

How the values were obtained:
[1] = Microsomal stability, human liver microsomes (predicted hepatic clearance); conditions: predicted from in vitro microsomal stability data
GLP-1R = GLP-1R (Homo sapiens, UniProt P43220); experiment: GLP-1R activation: cAMP increase in CHO cells stably expressing GLP-1R; assay type: cell-based; conditions: read-out: EC50
[2] = cAMP increase, CHO cells stably expressing GLP-1R, 10 point dose response, 30 minutes incubation

GLP-1R, sequence (P43220 24-463): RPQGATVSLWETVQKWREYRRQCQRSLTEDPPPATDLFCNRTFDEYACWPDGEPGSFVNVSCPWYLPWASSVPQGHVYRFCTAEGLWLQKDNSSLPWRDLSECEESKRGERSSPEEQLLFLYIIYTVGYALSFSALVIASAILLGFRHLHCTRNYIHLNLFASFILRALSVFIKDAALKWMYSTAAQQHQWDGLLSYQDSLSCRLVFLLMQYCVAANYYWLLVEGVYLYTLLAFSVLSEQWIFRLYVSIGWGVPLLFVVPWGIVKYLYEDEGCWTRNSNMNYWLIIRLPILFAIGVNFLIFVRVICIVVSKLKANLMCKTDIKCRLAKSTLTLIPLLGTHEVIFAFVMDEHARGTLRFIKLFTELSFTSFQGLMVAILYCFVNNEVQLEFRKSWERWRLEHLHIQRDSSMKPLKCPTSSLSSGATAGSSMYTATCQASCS

CCn1cncc1Cn1c(Cc2ccc(-c3cccc(OCc4ccc(C#N)cc4F)n3)cc2F)nc2ccc(C(=O)O)cc21 [Example 525, 2-(4-(6-((4-cyano-2-fluorobenzyl)oxy)pyridin-2-yl)-2-fluorobenzyl)-1-((1-ethyl-1H-imidazol-5-yl)methyl)-1H-benzo[d]imidazole-6-carboxylic acid]
Predicted Hepatic Clearance (Pred. Cl.) [1]: 2 mL/min/kg | EC50 (GLP-1R; [2]): 0.6 nM

COC(Cn1c(Cc2ccc(-c3cccc(OCc4ccc(C#N)cc4F)n3)cc2F)nc2ccc(C(=O)O)cc21)C(=O)Nc1nccs1 (single isomer, unassigned) [Example 338, 2-(4-(6-((4-cyano-2-fluorobenzyl)oxy)pyridin-2-yl)-2-fluorobenzyl)-1-(2-methoxy-3-oxo-3-(thiazol-2-ylamino)propyl)-1H-benzo[d]imidazole-6-carboxylic acid]
Predicted Hepatic Clearance (Pred. Cl.) [1]: 13 mL/min/kg | EC50 (GLP-1R; [2]): 2510 nM

N#Cc1cc(F)c(COc2nccc(-c3cc(F)c(Cc4nc5c(F)cc(C(=O)O)cc5n4C[C@@H]4CCO4)cc3F)n2)cc1F [Example 677]
Predicted Hepatic Clearance (Pred. Cl.) [1]: 1.83 mL/min/kg | EC50 (GLP-1R; [2]): 0.06 nM

COCCn1c(Cc2ccc(-c3cccc(OCc4ccc(C#N)c5ccccc45)n3)cc2F)nc2ccc(C(=O)O)cc21 [Example 357, 2-(4-(6-((4-cyanonaphthalen-1-yl)methoxy)pyridin-2-yl)-2-fluorobenzyl)-1-(2-methoxyethyl)-1H-benzo[d]imidazole-6-carboxylic acid]
Predicted Hepatic Clearance (Pred. Cl.) [1]: <1.83 mL/min/kg | EC50 (GLP-1R; [2]): 56.2 nM

N#Cc1ccc(COc2cccc(-c3ccc(Cc4nc5ccc(C(=O)O)cc5n4CC4(CF)CC4)c(C#N)c3)n2)c(F)c1 [Example 286, 2-(2-cyano-4-(6-((4-cyano-2-fluorobenzyl)oxy)pyridin-2-yl)benzyl)-1-((1-(fluoromethyl)cyclopropyl)methyl)-1H-benzo[d]imidazole-6-carboxylic acid]
Predicted Hepatic Clearance (Pred. Cl.) [1]: 2.62 mL/min/kg | EC50 (GLP-1R; [2]): 21.2 nM

N#Cc1ccc(COc2nccc(-c3ccc(Cc4nc5c(F)cc(C(=O)O)cc5n4C[C@@H]4CCO4)cc3F)n2)c(F)c1 [Example 369, (S)-2-(4-(2-((4-cyano-2-fluorobenzyl)oxy)pyrimidin-4-yl)-3-fluorobenzyl)-4-fluoro-1-(oxetan-2-ylmethyl)-1H-benzo[d]imidazole-6-carboxylic acid]
Predicted Hepatic Clearance (Pred. Cl.) [1]: 4.33 mL/min/kg | EC50 (GLP-1R; [2]): 0.13 nM

O=C(O)c1ccc2nc(Cc3cc(F)c(-c4nc(OCc5ccc(C(F)F)cc5F)ncc4F)cc3F)n(C[C@@H]3CCO3)c2c1 [Example 877]
Predicted Hepatic Clearance (Pred. Cl.) [1]: 7.17 mL/min/kg | EC50 (GLP-1R; [2]): 0.51 nM

COCCn1c(Cc2ccc(-c3nccc(OCc4ccc(C#N)cc4F)n3)cc2F)nc2ccc(C(=O)O)cc21 [Example 25, 2-{[4-[4-[(4-cyano-2-fluoro-phenyl)methoxy]pyrimidin-2-yl]-2-fluoro-phenyl]methyl}-3-(2-methoxyethyl)benzimidazole-5-carboxylic acid]
Predicted Hepatic Clearance (Pred. Cl.) [1]: 7.33 mL/min/kg | EC50 (GLP-1R; [2]): 25.9 nM

COCCn1c(Cc2ccc(-c3cccc(OCc4ccc(C#N)cc4F)n3)cc2C#Cc2ccccc2)nc2ccc(C(=O)O)cc21 [Example 237, 2-(4-(6-((4-cyano-2-fluorobenzyl)oxy)pyridin-2-yl)-2-(phenylethynyl)benzyl)-1-(2-methoxyethyl)-1H-benzo[d]imidazole-6-carboxylic acid]
Predicted Hepatic Clearance (Pred. Cl.) [1]: 11.2 mL/min/kg | EC50 (GLP-1R; [2]): 19.2 nM

COCCn1c(Cc2ccc(-c3cccc(OCc4ccc(F)cc4OC)n3)cc2F)nc2ccc(C(=O)O)cc21 [Example 252, 2-(2-fluoro-4-(6-((4-fluoro-2-methoxybenzyl)oxy)pyridin-2-yl)benzyl)-1-(2-methoxyethyl)-1H-benzo[d]imidazole-6-carboxylic acid]
Predicted Hepatic Clearance (Pred. Cl.) [1]: <1.83 mL/min/kg | EC50 (GLP-1R; [2]): 3.78 nM

N#Cc1ccc(COc2nccc(-c3cc(F)c(Cc4nc5ccc(C(=O)O)cc5n4CC45CC(CO4)C5)cc3F)n2)c(F)c1 [Example 645]
Predicted Hepatic Clearance (Pred. Cl.) [1]: 9.17 mL/min/kg | EC50 (GLP-1R; [2]): 2.05 nM

CNC(=O)C(Cn1c(Cc2ccc(-c3cccc(OCc4ccc(C#N)cc4F)n3)cc2F)nc2ccc(C(=O)O)cc21)OC (single isomer, unassigned) [Example 330, 2-(4-(6-((4-cyano-2-fluorobenzyl)oxy)pyridin-2-yl)-2-fluorobenzyl)-1-(2-methoxy-3-(methylamino)-3-oxopropyl)-1H-benzo[d]imidazole-6-carboxylic acid]
Predicted Hepatic Clearance (Pred. Cl.) [1]: 3.17 mL/min/kg | EC50 (GLP-1R; [2]): 17.2 nM

N#Cc1ccc(COc2nc(-c3cc(F)c(Cc4nc5ccc(C(=O)O)cc5n4C[C@@H]4CCO4)cc3F)ncc2F)c(F)c1 [Example 449, (S)-2-(4-(4-((4-cyano-2-fluorobenzyl)oxy)-5-fluoropyrimidin-2-yl)-2,5-difluorobenzyl)-1-(oxetan-2-ylmethyl)-1H-benzo[d]imidazole-6-carboxylic acid]
Predicted Hepatic Clearance (Pred. Cl.) [1]: 4.33 mL/min/kg | EC50 (GLP-1R; [2]): 0.17 nM

COCCn1c(Cc2c(F)cc(-c3nccnc3OCc3ccc(C#N)cc3F)cc2F)nc2ccc(C(=O)O)cc21 [Example 177, 2-(4-(3-((4-cyano-2-fluorobenzyl)oxy)pyrazin-2-yl)-2,6-difluorobenzyl)-1-(2-methoxyethyl)-1H-benzo[d]imidazole-carboxylic acid]
Predicted Hepatic Clearance (Pred. Cl.) [1]: 7 mL/min/kg | EC50 (GLP-1R; [2]): 335 nM

COCCNC(=O)C(Cn1c(Cc2ccc(-c3cccc(OCc4ccc(C#N)cc4F)n3)cc2F)nc2ccc(C(=O)O)cc21)OC (single isomer, unassigned) [Example 328, 2-(4-(6-((4-cyano-2-fluorobenzyl)oxy)pyridin-2-yl)-2-fluorobenzyl)-1-(2-methoxy-3-((2-methoxyethyl)amino)-3-oxopropyl)-1H-benzo[d]imidazole-6-carboxylic acid]
Predicted Hepatic Clearance (Pred. Cl.) [1]: 11 mL/min/kg | EC50 (GLP-1R; [2]): 26.5 nM

CC(=O)N1C[C@@H](F)C[C@@H]1Cn1c(Cc2cc(F)c(-c3cccc(OCc4ccc(C#N)cc4F)n3)cc2F)nc2ccc(C(=O)O)cc21 [Example 690]
Predicted Hepatic Clearance (Pred. Cl.) [1]: 6 mL/min/kg | EC50 (GLP-1R): 3.98 nM

CC1(C)CC(Cn2c(Cc3ccc(-c4cccc(OCc5ccc(C#N)cc5F)n4)cc3F)nc3ccc(C(=O)O)cc32)O1 (single isomer, unassigned) [Example 904, 2-(4-(6-((4-cyano-2-fluorobenzyl)oxy)pyridin-2-yl)-2-fluorobenzyl)-1-((4,4-dimethyloxetan-2-yl)methyl)-1H-benzo[d]imidazole-6-carboxylic acid]
Predicted Hepatic Clearance (Pred. Cl.) [1]: 11.2 mL/min/kg | EC50 (GLP-1R; [2]): 311 nM

N#Cc1ccc(COc2nc(-c3ccc(Cc4nc5ccc(C(=O)O)cc5n4CC4(CF)CC4)c(F)c3)ccc2F)c(F)c1 [Example 134, 2-(4-(6-((4-cyano-2-fluorobenzyl)oxy)-5-fluoropyridin-2-yl)-2-fluorobenzyl)-1-((1-(fluoromethyl)cyclopropyl)methyl)-1H-benzo[d]imidazole-6-carboxylic acid]
Predicted Hepatic Clearance (Pred. Cl.) [1]: <1.83 mL/min/kg | EC50 (GLP-1R; [2]): 0.34 nM

COCCn1c(Cc2ccc(-c3cccc(OCc4ccc(Cl)cn4)n3)cc2F)nc2ccc(C(=O)O)cc21 [Example 693]
Predicted Hepatic Clearance (Pred. Cl.) [1]: 9.67 mL/min/kg | EC50 (GLP-1R; [2]): 15.9 nM

N#Cc1ccc(COc2nccc(-c3ccc(Cc4nc5ccc(C(=O)O)cc5n4C[C@@H]4CCO4)c(F)c3)n2)c(F)c1 [Example 351, (S)-2-(4-(2-((4-cyano-2-fluorobenzyl)oxy)pyrimidin-4-yl)-2-fluorobenzyl)-1-(oxetan-2-ylmethyl)-1H-benzo[d]imidazole-6-carboxylic acid]
Predicted Hepatic Clearance (Pred. Cl.) [1]: 2 mL/min/kg | EC50 (GLP-1R; [2]): 0.96 nM

COCCn1c(Cc2ccc(-c3cccc(O[C@@H](C)c4ccccc4)n3)cc2F)nc2ccc(C(=O)O)cc21 [Example 494, (S)-2-(2-fluoro-4-(6-(1-phenylethoxy)pyridin-2-yl)benzyl)-1-(2-methoxyethyl)-1H-benzo[d]imidazole-6-carboxylic acid]
Predicted Hepatic Clearance (Pred. Cl.) [1]: 13.2 mL/min/kg | EC50 (GLP-1R; [2]): 4550 nM

N#Cc1ccc(COc2cccc(-c3cc(F)c(Cc4nc5ccc(C(=O)O)cc5n4CCOC(F)F)cc3F)n2)c(F)c1 [Example 325, 2-(4-(6-((4-cyano-2-fluorobenzyl)oxy)pyridin-2-yl)-2,5-difluorobenzyl)-1-(2-(difluoromethoxy)ethyl)-1H-benzo[d]imidazole-6-carboxylic acid]
Predicted Hepatic Clearance (Pred. Cl.) [1]: 5.67 mL/min/kg | EC50 (GLP-1R; [2]): 1.61 nM

N#Cc1ccc(COc2cccc(-c3cc(F)c(Cc4nc5ccc(C(=O)O)cc5n4[C@H]4CCCOC4)cc3F)n2)c(F)c1 [Example 545, 2-(4-(6-((4-cyano-2-fluorobenzyl)oxy)pyridin-2-yl)-2,5-difluorobenzyl)-1-(tetrahydro-2H-pyran-3-yl)-1H-benzo[d]imidazole-carboxylic acid]
Predicted Hepatic Clearance (Pred. Cl.) [1]: 6.67 mL/min/kg | EC50 (GLP-1R; [2]): 6.9 nM

N#Cc1ccc(COc2cccc(-c3ccc(Cc4nc5ccc(C(=O)O)cc5n4Cc4cscn4)c(F)c3)n2)c(F)c1 [Example 454, 2-(4-(6-((4-cyano-2-fluorobenzyl)oxy)pyridin-2-yl)-2-fluorobenzyl)-1-(thiazol-4-ylmethyl)-1H-benzo[d]imidazole-6-carboxylic acid]
Predicted Hepatic Clearance (Pred. Cl.) [1]: 4.67 mL/min/kg | EC50 (GLP-1R; [2]): 5.53 nM

N#CCC1(Cn2c(Cc3ccc(-c4cccc(OCc5ccc(C#N)cc5F)n4)c(F)c3)nc3c(F)cc(C(=O)O)cc32)CC1 [Example 287, 2-(4-(6-((4-cyano-2-fluorobenzyl)oxy)pyridin-2-yl)-3-fluorobenzyl)-1-((1-(cyanomethyl)cyclopropyl)methyl)-4-fluoro-1H-benzo[d]imidazole-6-carboxylic acid]
Predicted Hepatic Clearance (Pred. Cl.) [1]: 10.5 mL/min/kg | EC50 (GLP-1R; [2]): 0.14 nM

COCCn1c(Cc2ccc(-c3cccc(OCc4ccc(C#N)cc4F)n3)cc2NS(C)(=O)=O)nc2ccc(C(=O)O)cc21 [Example 66, 2-(4-(6-((4-Cyano-2-fluorobenzyl)oxy)pyridin-2-yl)-2-(methylsulfonamido)benzyl)-1-(2-methoxyethyl)-1H-benzo[d]imidazole-6-carboxylic acid]
Predicted Hepatic Clearance (Pred. Cl.) [1]: 12.3 mL/min/kg | EC50 (GLP-1R; [2]): 1030 nM
